Source: paper PMC8795197, “Safety and activity of WX-0593 (Iruplinalkib) in patients with ALK- or ROS1-rearranged advanced non-small cell lung cancer: a phase 1 dose-escalation and dose-expansion trial” (Signal Transduction and Targeted Therapy, 2022)
Like-named read-outs stand apart in the source and are kept apart here.

What was measured:
Ba/F3 (EML4-ALK-C1156Y) = test: Cell proliferation inhibition assay; type: cell-based
[1] = Phase 1 dose-escalation phase: plasma pharmacokinetics; type: in vivo, human; conditions: for Tmax / AUC(0-t) / AUC(0-inf) / Cmax / MRT inf / half-life: human, plasma, oral; for Tmax / AUC(0-t) / AUC(0-inf) / Cmax / MRT inf / half-life / Cssmax / Cssmin / Racc_AUC / Racc_Cmax: mean (SD); for MRT inf: read-out: MRT0-∞; for half-life: read-out: T1/2z (converted)
Method: Three patients were assigned to each dose level. In the dosing cohort of 30 mg, treatment included a single WX-0593 dose, followed by 7-day PK evaluation period, and subsequent daily oral dosing for continuous 21 days. In other dosing cohorts, WX-0593 was administered orally as a single dose in the 4-day PK run-in period, followed by dosing once per day in continuous 21-day cycles. The DLT observation period was the first cycle of WX-0593 treatment (the single-dose period and 21 days of multiple-dose period).
In the dose-escalation phase, blood samples were collected at protocol-specified time points after single and multiple dose administration of WX-0593 in all dosing cohorts for assessment of PK parameters.
Safety analysis was performed in the SS, which was comprised of all patients treated with one dose of WX-0593 and with safety data recorded. Efficacy analysis was performed in the FAS, which was defined as all patients treated with at least one dose of WX-0593. The PK analysis set included all patients treated with at least one dose of WX-0593 and with at least one evaluable PK sample.
Descriptive statistics were carried out to summarize patients’ baseline characteristics and safety. […] All time-to-event data (PFS, TTP, DOR, and OS) and their corresponding 95% CIs were estimated by Kaplan–Meier methods. PK parameter analyses were done with Phoenix WinNonlin version 8.0. All other statistical analyses were conducted using SAS version 9.4.
Blood sampling time points for single dose: Blood samples are collected before dosing and 0.5 h, 1 h, 2 h, 3 h, 4 h, 5 h, 6 h, 8 h, 12 h, 24 h, 32 h, 48 h, and 72 h after dosing (after adjustment according to the pharmacokinetic parameters of patients in the first dose arm).
Blood sampling time points for repeated dosing: Repeated dosing starts 4 days after single dose administration. Blood samples are collected before repeated dosing on Days 7, 14, and 21 before repeated dosing, and within 24h after dosing (0.5 h, 1 h, 2 h, 3 h, 4 h, 5 h, 6 h, 8 h, 12 h, 24 h) for measurement of blood pharmacokinetic parameters.
The plasma concentration of WX-0593 will be determined using LC-MS.

M2 = M2 (Homo sapiens, UniProt P08172); test: GPCR antagonist screening assay; type: cell-based
M2, sequence (P08172 whole entry): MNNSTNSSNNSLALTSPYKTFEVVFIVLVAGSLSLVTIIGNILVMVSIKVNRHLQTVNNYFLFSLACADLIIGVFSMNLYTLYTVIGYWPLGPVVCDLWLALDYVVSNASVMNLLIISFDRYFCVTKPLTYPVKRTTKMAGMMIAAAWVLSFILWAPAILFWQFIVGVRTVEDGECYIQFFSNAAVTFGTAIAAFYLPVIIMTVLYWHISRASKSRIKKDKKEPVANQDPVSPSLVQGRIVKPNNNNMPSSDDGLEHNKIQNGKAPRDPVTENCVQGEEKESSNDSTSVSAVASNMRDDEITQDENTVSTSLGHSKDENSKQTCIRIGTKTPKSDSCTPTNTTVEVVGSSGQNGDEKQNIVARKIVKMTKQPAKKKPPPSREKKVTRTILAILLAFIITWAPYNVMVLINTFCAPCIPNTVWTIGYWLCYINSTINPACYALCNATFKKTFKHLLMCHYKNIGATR

[2] = tested on: NCI-H1975 (EGFR mutant L858R/T790M); test: Cell proliferation inhibition assay; type: cell-based
[3] = Repeated-dose toxicity study, 28 days oral gavage
Method: Repeated administration for 28 days was carried out. 3, 10, and 30 mg/kg were administered to rats. 1, 3, and 10 mg/kg were administered to cynomolgus monkeys.

LU-01-0319R NSCLC PDX = test: PDX model resistant to crizotinib; type: in vivo
[4] = Single-dose toxicity study (acute toxicity)
M1 = M1 (Homo sapiens, UniProt P11229); test: GPCR antagonist screening assay; type: cell-based
M1, sequence (P11229 whole entry): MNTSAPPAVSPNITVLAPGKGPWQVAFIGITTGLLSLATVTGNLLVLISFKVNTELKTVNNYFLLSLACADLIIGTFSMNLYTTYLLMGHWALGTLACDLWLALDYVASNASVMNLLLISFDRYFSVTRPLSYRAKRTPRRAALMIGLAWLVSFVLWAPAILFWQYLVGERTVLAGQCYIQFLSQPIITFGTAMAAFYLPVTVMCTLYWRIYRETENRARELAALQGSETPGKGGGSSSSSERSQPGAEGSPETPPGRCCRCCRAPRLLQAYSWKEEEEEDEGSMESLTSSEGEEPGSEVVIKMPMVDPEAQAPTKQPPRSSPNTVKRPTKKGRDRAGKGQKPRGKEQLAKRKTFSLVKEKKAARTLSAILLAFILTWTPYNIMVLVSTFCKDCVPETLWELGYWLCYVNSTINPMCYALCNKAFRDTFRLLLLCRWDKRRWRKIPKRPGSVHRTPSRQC

[5] = Excretion and mass balance after [14C]WX-0593, bile-duct cannulation (BDC); type: in vivo; conditions: 0-72 hours, BDC rats
[6] = Reproductive toxicity study; conditions: rat, in vivo
[7] = multiple dosing 120 mg (n = 11)
[8] = multiple dosing 180 mg (n = 13)
[9] = multiple dosing 240 mg (n = 12)

## COc1cc(N2CCC3(CCN(C)CC3)CC2)ccc1Nc1ncc(Cl)c(Nc2ccccc2P(C)(C)=O)n1 [WX-0593]
Ba/F3 (EML4-ALK-C1156Y)
  growth inhibition: significantly inhibits the growth
[1]; 180 mg, once daily
  free Cavg,ss: 127 nM
[1]; 30 mg, multiple dosing 30 mg (n = 3)
  Tmax: 4.33 h
[1]; 30 mg, multiple dosing 30 mg (n = 3), read-out: AUC0–24
  AUC(0-t): 1150 ng·h/mL
[1]; 30 mg, single dose 30 mg (n = 3)
  Tmax: 2.32 h
[1]; 30 mg, single dose 30 mg (n = 3), read-out: AUC0-t
  AUC(0-t): 1310 ng·h/mL
[1]; 60 mg, multiple dosing 60 mg (n = 3)
  Tmax: 4.01 h
[1]; 60 mg, multiple dosing 60 mg (n = 3), read-out: AUC0–24
  AUC(0-t): 4960 ng·h/mL
[1]; 60 mg, single dose 60 mg (n = 3)
  Tmax: 1.33 h
[1]; 60 mg, single dose 60 mg (n = 3), read-out: AUC0-t
  AUC(0-t): 3650 ng·h/mL
[1]; 90 mg, multiple dosing 90 mg (n = 8)
  Tmax: 2.87 h
[1]; 90 mg, multiple dosing 90 mg (n = 8), read-out: AUC0–24
  AUC(0-t): 4390 ng·h/mL
[1]; 90 mg, single dose 90 mg (n = 8)
  Tmax: 1.69 h
[1]; 90 mg, single dose 90 mg (n = 8), read-out: AUC0-t
  AUC(0-t): 5430 ng·h/mL
[1]; 120 mg, multiple dosing 120 mg (n = 11)
  Tmax: 2.79 h
[1]; 120 mg, multiple dosing 120 mg (n = 11), read-out: AUC0–24
  AUC(0-t): 6120 ng·h/mL
[1]; 120 mg, single dose 120 mg (n = 11)
  Tmax: 1.81 h
[1]; 120 mg, single dose 120 mg (n = 11), read-out: AUC0-t
  AUC(0-t): 7780 ng·h/mL
[1]; 180 mg, multiple dosing 180 mg (n = 13)
  Tmax: 2.79 h
[1]; 180 mg, multiple dosing 180 mg (n = 13), read-out: AUC0–24
  AUC(0-t): 7210 ng·h/mL
[1]; 180 mg, single dose 180 mg (n = 12)
  Tmax: 2.29 h
[1]; 180 mg, single dose 180 mg (n = 12), read-out: AUC0-t
  AUC(0-t): 6620 ng·h/mL
[1]; 240 mg, multiple dosing 240 mg (n = 12)
  Tmax: 3.27 h
[1]; 240 mg, multiple dosing 240 mg (n = 12), read-out: AUC0–24
  AUC(0-t): 12700 ng·h/mL
[1]; 240 mg, single dose 240 mg (n = 10)
  Tmax: 2.5 h
[1]; 240 mg, single dose 240 mg (n = 10), read-out: AUC0-t
  AUC(0-t): 15500 ng·h/mL
[1]; 300 mg, multiple dosing 300 mg (n = 2)
  Tmax: 1.24 h
[1]; 300 mg, multiple dosing 300 mg (n = 2), read-out: AUC0–24
  AUC(0-t): 23400 ng·h/mL
[1]; 300 mg, single dose 300 mg (n = 3)
  Tmax: 2.71 h
[1]; 300 mg, single dose 300 mg (n = 3), read-out: AUC0-t
  AUC(0-t): 14900 ng·h/mL
[1]; single dose 30 mg (n = 3)
  AUC(0-inf): 1710 ng·h/mL
  Cmax: 105 ng/mL
  MRT inf: 20.7 h
  half-life: 15.5 h
[1]; single dose 60 mg (n = 3)
  AUC(0-inf): 4060 ng·h/mL
  Cmax: 305 ng/mL
  MRT inf: 28.3 h
  half-life: 25.7 h
[1]; single dose 90 mg (n = 8)
  AUC(0-inf): 6210 ng·h/mL
  Cmax: 474 ng/mL
  MRT inf: 24 h
  half-life: 21.9 h
[1]; single dose 120 mg (n = 11)
  AUC(0-inf): 8120 ng·h/mL
  Cmax: 571 ng/mL
  MRT inf: 25.6 h
  half-life: 22.2 h
[1]; single dose 180 mg (n = 12)
  AUC(0-inf): 7320 ng·h/mL
  Cmax: 401 ng/mL
  MRT inf: 27.9 h
  half-life: 23.9 h
[1]; single dose 240 mg (n = 10)
  AUC(0-inf): 16900 ng·h/mL
  Cmax: 1000 ng/mL
  MRT inf: 25 h
  half-life: 22.9 h
[1]; single dose 300 mg (n = 3)
  AUC(0-inf): 17100 ng·h/mL
  Cmax: 905 ng/mL
  MRT inf: 32.4 h
  half-life: 27.5 h
[1]; multiple dosing 30 mg (n = 3)
  Cssmax: 95.13 (54.02) ng/mL
  Cssmin: 25.00 (8.04) ng/mL
  Racc_AUC: 116.256 (32.91) %
  Racc_Cmax: 89.141 (35.00) %
[1]; multiple dosing 60 mg (n = 3)
  Cssmax: 419.00 (128.24) ng/mL
  Cssmin: 117.87 (59.10) ng/mL
  Racc_AUC: 203.993 (32.03) %
  Racc_Cmax: 150.689 (39.79) %
[1]; multiple dosing 90 mg (n = 8)
  Cssmax: 324.38 (109.58) ng/mL
  Cssmin: 103.65 (29.27) ng/mL
  Racc_AUC: 149.978 (88.53) %
  Racc_Cmax: 117.082 (97.12) %
[1]; [7]
  Cssmax: 479.20 (151.70) ng/mL
  Cssmin: 139.24 (34.22) ng/mL
  Racc_AUC: 130.809 (36.42) %
  Racc_Cmax: 111.519 (44.39) %
[1]; [8]
  Cssmax: 529.38 (203.22) ng/mL
  Cssmin: 164.10 (77.76) ng/mL
  Racc_AUC: 174.265 (35.49) %
  Racc_Cmax: 138.238 (26.54) %
[1]; [9]
  Cssmax: 960.50 (234.47) ng/mL
  Cssmin: 236.00 (56.80) ng/mL
  Racc_AUC: 160.210 (77.95) %
  Racc_Cmax: 127.749 (58.74) %
[1]; multiple dosing 300 mg (n = 2)
  Cssmax: 1685.00 (657.61) ng/mL
  Cssmin: 623.50 (402.34) ng/mL
  Racc_AUC: 309.507 (151.00) %
  Racc_Cmax: 223.005 (88.95) %
[1]; once-daily 30 to 300 mg, AUC0–24
  dose proportionality of exposure: increased in an approximately dose-proportion manner
M2
  IC50: > 10 µM
[2]
  growth inhibition: somewhat inhibits the growth
[3]; 1/5 of NOAEL, 60 kg/person
  human equivalent dose (HED): 12 mg/person
[3]; 1/6 of HNSTD, 60 kg/person
  human equivalent dose: 32 mg/person
[3]; 28 days oral gavage
  highest non-severely toxic dose (HNSTD): greater than 10 mg/kg/day
[3]; cynomolgus monkey, in vivo
  HNSTD as multiple of the effective dose in nude mice: 16 times
  NOAEL as multiple of the effective dose in nude mice: 4.8 times
LU-01-0319R NSCLC PDX; WX-0593 2.5, 5, 10 mg/kg, ceritinib 10/20 mg/kg, brigatinib 10 mg/kg
  anti-tumor effect: significant anti-tumor effects
LU-01-0319R NSCLC PDX; all treatment arms
  body weight: no significant decrease in weight
[4]; female animals
  MTD as multiple of the effective dose: 10 times
[4]; males
  MTD as multiple of the effective dose: 40 times
M1
  IC50: > 10 µM
[5]
  dose excreted in bile: 30.56%
  dose excreted in feces: 32.04%
  dose excreted in urine: 30.73%
  dose in cage rinses and washes: 1.43%
  mean radioactivity recovery rate: 94.75%
[6]
  NOAEL as multiple of the effective dose in nude mice: 8 times
[6]; read-out: NOAEL of fertility and early embryo developmental toxicity
  NOAEL: 10 mg/kg
